# Measurements published in article PMC10650832, “Natural Phosphodiesterase-4 Inhibitors with Potential Anti-Inflammatory Activities from Millettia dielsiana” (Molecules, 2023).
# Legend:
# [1] = target: T1, Recombinant PDE4B (Homo sapiens, UniProt Q07343); assay: In vitro PDE4B enzymatic assay (cAMP dynamic 2 kit); format: biochemical; settings: average of three determinations ± SEM
# T1 construct: purchased Sigma Aldrich Co Ltd
# Method: (§1) Recombinant PDE4B/D was from Sigma Aldrich Co Ltd. A PDE4B/D inhibitors assay was performed using a cAMP dynamic 2 kit. Serial dilutions of isolated compounds with DMSO (100-fold of final concentration) were prepared. Compound solutions were diluted 20-fold with cAMP assay buffer (50 mM Tris, 6 mM MgCl2, pH 7.5). Enzyme solution ([…] of 30 ng/mL or cAMP assay buffer for the control) and […] of isolated compounds (5-fold concentration of final concentration) were added to each well of the 96-well micro assay plate and pre-incubated at room temperature for 10 min. The enzymatic reactions were started by adding […] of cAMP solution (150 nM in cAMP assay buffer) or cAMP assay buffer and incubated at 37 °C for 30 min. The enzymatic reaction was terminated by placing the assay plate on ice. The concentration of cAMP was quantified by measurement of fluorescence intensity using Spectrophotometer Model-SP-2558 (Acton Research, Acton, MA, USA).
# [2] = target: T2, Recombinant PDE4D (Homo sapiens, UniProt Q08499); assay: In vitro PDE4D enzymatic assay (cAMP dynamic 2 kit); format: biochemical; settings: average of three determinations ± SEM
# T2 construct: purchased Sigma Aldrich Co Ltd
# T2 sequence (Q08499 whole entry, species assumed): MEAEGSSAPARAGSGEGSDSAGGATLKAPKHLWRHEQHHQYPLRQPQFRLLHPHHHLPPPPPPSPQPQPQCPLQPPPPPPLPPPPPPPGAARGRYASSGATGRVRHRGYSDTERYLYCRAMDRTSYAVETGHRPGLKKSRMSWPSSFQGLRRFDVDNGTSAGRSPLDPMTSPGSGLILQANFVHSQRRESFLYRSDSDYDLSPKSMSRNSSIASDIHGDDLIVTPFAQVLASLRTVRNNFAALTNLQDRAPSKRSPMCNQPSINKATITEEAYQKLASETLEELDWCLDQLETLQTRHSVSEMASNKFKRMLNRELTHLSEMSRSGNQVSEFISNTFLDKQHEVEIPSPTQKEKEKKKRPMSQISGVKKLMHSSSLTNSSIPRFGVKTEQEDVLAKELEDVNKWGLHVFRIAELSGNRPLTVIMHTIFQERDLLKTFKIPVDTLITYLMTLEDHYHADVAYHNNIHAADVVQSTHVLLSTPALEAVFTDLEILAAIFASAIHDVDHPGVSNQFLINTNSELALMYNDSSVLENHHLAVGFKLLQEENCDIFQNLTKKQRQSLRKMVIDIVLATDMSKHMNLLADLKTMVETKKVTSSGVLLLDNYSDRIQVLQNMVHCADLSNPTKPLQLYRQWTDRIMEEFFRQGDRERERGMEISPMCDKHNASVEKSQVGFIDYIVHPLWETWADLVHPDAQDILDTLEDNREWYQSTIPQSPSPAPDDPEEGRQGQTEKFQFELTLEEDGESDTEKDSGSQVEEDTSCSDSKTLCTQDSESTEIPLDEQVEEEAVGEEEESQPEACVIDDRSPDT
# Method: as §1
# [3] = test system: NO production on RAW264.7 macrophages; assay: Inhibition of NO production in LPS-stimulated RAW264.7 cells (Griess); format: cell-based, murine; settings: highest concentration 50 µM
# Method: Cell RAW264.7 (ATCC, Manassas, VA, USA) was cultured for 48 h in DMEM (Dulbecco's Modified Eagle Medium) medium at 37 °C, 5% CO2, and 10% for fetal bovine serum (FBS). Then, the cell fluid was transferred to 96 wells with a density of 2.5 × 10^5 cells/well. Cells were stimulated with 2 μL lipopolysaccharide (LPS 0.1 mg/mL) for 24 h and supplemented with different concentrations of drugs/reagents. Cardamonin is used as a control (+) and DMSO as a control (-). The suspension of the cell was incubated with Griess reagent, NaNO2 at different concentrations to build the calibration curve. Measure the reaction response at λ = 570 nm. The inhibition rate of NO (%) production is determined by the formula: %UC = ([XTB]sample - [[…]) × 100 In which [XTB] is the average NO concentration calculated based on the standard NaNO2. […] Formazan crystalline metabolites are dissolved in dimethyl sulfoxide (DMSO, Sigma-Aldrich, Saint Louis, MO, USA) and measured optical density at λ = 540/720 nm on Infinite F50 device (Tecan, Männedorf, Switzerland).
# [4] = test system: NO production in RAW264.7 cells induced by LPS; set-up: method as in PMID 31470215; settings: read-out: IC50 of inhibition of NO production; cited from earlier work
# [5] = test system: NO production; set-up: method as in PMID 22902267; settings: read-out: IC50 of inhibition of NO production; cited from earlier work
# T1 sequence (Q07343 whole entry, species assumed): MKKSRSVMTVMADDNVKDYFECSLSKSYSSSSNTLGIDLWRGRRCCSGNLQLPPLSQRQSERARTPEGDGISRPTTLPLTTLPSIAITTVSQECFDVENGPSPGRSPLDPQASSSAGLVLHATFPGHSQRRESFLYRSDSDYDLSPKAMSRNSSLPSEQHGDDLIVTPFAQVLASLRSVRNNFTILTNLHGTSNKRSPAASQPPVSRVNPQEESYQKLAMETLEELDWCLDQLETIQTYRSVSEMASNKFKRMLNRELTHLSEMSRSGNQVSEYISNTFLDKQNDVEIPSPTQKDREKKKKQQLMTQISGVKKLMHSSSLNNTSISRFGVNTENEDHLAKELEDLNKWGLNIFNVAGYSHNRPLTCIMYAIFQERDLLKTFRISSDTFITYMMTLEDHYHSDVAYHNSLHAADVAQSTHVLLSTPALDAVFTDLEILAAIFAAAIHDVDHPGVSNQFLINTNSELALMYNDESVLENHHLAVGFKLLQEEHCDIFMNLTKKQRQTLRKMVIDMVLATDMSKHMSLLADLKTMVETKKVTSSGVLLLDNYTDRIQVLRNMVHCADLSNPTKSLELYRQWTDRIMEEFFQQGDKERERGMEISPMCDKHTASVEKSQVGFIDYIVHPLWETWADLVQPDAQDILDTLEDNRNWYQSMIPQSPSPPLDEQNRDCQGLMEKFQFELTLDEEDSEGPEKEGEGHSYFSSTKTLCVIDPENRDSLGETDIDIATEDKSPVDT
compound,measurement,setting,value
"5,7,4′-trihydroxyisoflavone 7-O-β-D-apiofuranosyl-(1→6)-β-D-glucopyranoside [D50]",IC50,[1]; read-out: IC50 of inhibition of PDE4B,6.56 ± 0.7 µM
same,IC50,[2]; read-out: IC50 of inhibition of PDE4D,11.7 ± 1.3 µM
same,IC50,[3],5.4 ± 0.9 µM
"C[C@H]1[C@H](C)CC[C@]2(C(=O)O)CC[C@]3(C)C(=CC[C@@H]4[C@@]5(C)CC[C@H](OC(=O)/C=C/c6ccc(O)cc6)C(C)(C)[C@@H]5CC[C@]43C)[C@H]12 (relative stereo) [D15, trans-3-O-p-hydroxycinnamoyl ursolic acid]",IC50 of inhibition of PDE4B,[1],did not show activity
same,IC50 of inhibition of PDE4D,[2],did not show activity
"O=C(/C=C/c1ccc(O)cc1)c1ccc(O)cc1O [D4, Isoliquiritigenin]",IC50,[4],31.2 µM
"COc1ccc([C@H]2COc3cc(O)ccc3C2)c(O)c1 [D9, (3S)-Vestitol]",IC50,[4],16 µM
"Oc1ccc([C@H]2CCc3ccc(O)cc3O2)cc1 [D10, Tupichinol C]",IC50,[4],38.4 µM
"COc1cc(OC)c(-c2coc3c4c(c(OC)cc3c2=O)OC(C)(C)C=C4)cc1OC [D30, Millesianin C]",IC50,[5],1.37 µM
